# Measured values as given in PMC3231940, “Disposition, metabolism and mass balance of [^14C]apremilast following oral administration” (Xenobiotica; the Fate of Foreign Compounds in Biological …, 2011).
# “And” between values parts separate entries of the source, which are not always exact repeats. Identical values can stand only once.
# How the values were obtained:
# [1] = system: TNF-α production by human peripheral blood mononuclear cells; experiment: TNF-α production assay in LPS-stimulated PBMC; type: cell-based; settings: LPS 1 ng/mL, 16-18 h, ELISA
# Protocol: (§1) PDE4 enzyme was isolated from U937 human monocytic cells and used for testing inhibition in a cAMP hydrolysis assay as previously described ([Schafer et al. 2010]). For the TNF-α production assay, human peripheral blood mono-nuclear cells (PBMC) were isolated from buffy coat of normal donor blood units (Blood Center of New Jersey, East Orange, NJ) by density centrifugation over Ficoll Hypaque (Pharmacia, Piscataway, NJ). Cells were cultured in RPMI 1640 (Life Technologies, Grand Island, NY) supplemented with 5% AB^+ human serum (Gemini Bio-products, Woodland, CA), 2-mM L-glutamine, 100-U/mL penicillin and 100-μg/mL streptomycin (Life Technologies). PBMC (2×10^5 cells) were plated in 96-well flat-bottom Costar tissue culture plates (Corning, NY) in duplicate. Cells were stimulated with lipopolysaccharides (LPS) (from Salmonella abortus equi; Sigma cat.no. L-1887, St.Louis, MO) at a final concentration of 1 ng/mL in the absence or presence of compounds. The compounds were dissolved in DMSO (Sigma) and subsequent dilutions were done in culture medium immediately before use. The compounds were added to cells 1 h before LPS stimulation. The cells were incubated for 16-18 h at 37°C in 5% CO2, and super-natants were then collected, diluted with culture medium and assayed for TNF-α levels by enzyme-linked immunosorbent assay (ThermoFisher, Rockford, IL). Fifty percent inhibitory concentrations (IC50) for the PDE4 enzymatic and TNF-α assay were calculated by non-linear regression analysis using Prism 5.1 (GraphPad Software). Regression curves were sigmoidal dose response curves with maximum and minimum constrained to 100% and 0%, respectively.
# [2] = Metabolite profiling by HPLC radiochromatography in plasma, urine and faeces; type: in vivo, human
# Protocol: Individual plasma samples collected from all subjects at 0.5, 1, 2.5, 8, 24, 36 and 48 h post-dose were analysed for metabolite profiling. A pooled sample (equal volume from 0.5,1,2.5,8 and 24 h) from subject 1 was also used for metabolite profiling. Three volumes of acetonitrile were added to each sample, followed by mixing and centrifu-gation. The supernatant was removed and the pellet was washed twice with acetonitrile. The combined superna-tants were evaporated to dryness under a stream of nitrogen. The residues were re-suspended in acetonitrile: 1% formic acid in water (1:1), assayed for extraction recovery and analysed for metabolite profiling.
# For each subject, urine samples were pooled using an equal percentage by volume of the 0-4, 4-8, 8-12 and 12-24-h samples. The 24-48-h urine sample from each subject and a pool of the 0-168-h urine samples from subject 1 were also analysed for metabolite profiling. Samples were mixed and centrifuged prior to the supernatants being transferred to fresh tubes for metabolite profiling analysis.
# Faecal homogenates for metabolite profiling were pooled using an equal percentage by weight to generate two pools (0-48 h and 48-96 h) for each subject. An additional pool (0-168 h) was prepared using the samples collected from subject 1. An aliquot (approximately 6 g) of each pool was extracted with three volumes of acetonitrile; samples were mixed and centrifuged. The supernatant was removed and the pellets were extracted twice with an additional 12 mL of acetonitrile each time. The combined supernatants were evaporated to dryness under a stream of nitrogen and the residue was re-suspended in a small volume (approximately 400 μL) of acetonitrile: 1% formic acid in water (1:1). Samples were assayed for extraction recovery prior to metabolite profiling.
# HPLC analysis for metabolite profiling was performed using a Shimadzu LC-10ADVP (Shimadzu Corp., Columbia, MD) or a Waters 2695 Alliance Separation Module (Waters Corp., Milford, MA) with the autosampler set to an ambient temperature of approximately 22°C. ASPD-10A VPUV-Vis Detector or a Waters 996 Photodiode array detector set to 254 nm was used to detect UV absorbance. [^14C]Apremilast and metabolites were separated using a Phenomenex Luna C 18(2) column (150 × 4.6 mm, 3 μm; Phenomenex, Torrance, CA) equipped with a RP-18 guard column (15×3.2 mm, 7 μm) or using an ACE 3 C18 column (150 × 4.6 mm, 3 μm; Advanced Chromatography Technologies, Aberdeen, Scotland) equipped with an ACE 3 guard column (10×3mm, 3 μm). The mobile phases used were 0.4% formic acid in water; pH 3.2 with ammonium hydroxide (mobile phase A) and acetonitrile (mobile phase B). The column temperature was 30°C and the flow rate was 0.7mL/min. The linear gradient was delivered as follows: 0-5 min to 100% A; 5-20 min to 85% A; 20-30 min hold at 85% A; 30-50 min to 65% A; 50-60 min to 60% A; 60-70 min to 50% A; 70-75 min to 0% A; hold at 0% A until 80 min; return to initial conditions over 2 min.
# Radioactivity profiles for excreta were determined by radiochromatography using liquid chromatography-accurate radioisotope counting stop-flow system (LC-ARC; AIM Research Company, Wilmington, DE). Radioactivity was detected using a β-Ram Radioflow detector (IN/US Systems, Brandon, FL) equipped with a 1300-μL liquid cell. Liquid scintillation cocktail and column eluate were mixed at a ratio of 2.5:1. Radioactive peaks were quantified using LC-ARC data handling software. Plasma radioactivity profiles were determined by collecting the column eluate into 96-well Deepwell LumaPlates at a rate of 0.25 min/fraction. The plates were dried and the radioactivity in each well determined using a PerkinElmer TopCount NXT Microplate Scintillation Counter. HPLC radiochromatograms were reconstructed using LC-ARC data handling software.
# Pharmacokinetic data were generated by non-compartmental analysis of plasma or whole blood versus time profiles using WinNonlin (version 4.1, Enterprise Edition). […]
# [3] = system: PDE4 enzyme isolated from U937 human monocytic cells; experiment: PDE4 inhibition, cAMP hydrolysis assay; type: biochemical; settings: PDE4 from U937 cells, cAMP hydrolysis
# Protocol: as §1
# [4] = radiochromatography, single oral 20-mg dose, mean ± SD
smiles,measurement,setting,value
"CCOc1cc([C@@H](CS(C)(=O)=O)N2C(=O)c3cccc(NC(C)=O)c3C2=O)ccc1OC [Apremilast, (+)-N-[2-[(lS)-1-(3-ethoxy-4-methoxyphenyl)-2-(methylsulfonyl)ethyl]-1,3-dioxo-2,3-dihydro-lH-isoindol-4-yl]acetamide]",IC50,[1],77 nM
same,Plasma (% AUC relative to TRA); share of circulating radioactivity,[2]; AUC0-t (unchanged drug or metabolite)/AUC0-48 (TRA) * 100%,45% and 44.8%
same,Plasma exposure (AUC) relative to total radioactivity,[2]; based on radiochromatography,approximately 40%
same,"% of dose excreted, faeces",[2]; faeces collected up to 96-h post-dose,4 % of dose and 4.1 % of dose
same,half-life,"[2]; human, plasma, radiochromatography, single oral 20-mg dose, mean ± SD, read-out: Plasma t½ (converted)",7.1 ± 2.7 h
same,Tmax,"[2]; male, human, plasma, radiochromatography, single oral 20-mg dose, median and range",1.8 h
same,Plasma Cmax,"[2]; plasma radioactivity concentrations and radiochromatography, single oral 20-mg dose, mean ± SD",321±134 ngEq/mL
same,Plasma AUC0-t,[2]; [4],2455±690 ngEq*h/mL
same,Plasma AUC0-∞,[2]; [4],2636±705 ngEq*h/mL
same,"% of dose excreted, urine",[2]; urine collected up to 48-h post-dose,2.8 % of dose
same,IC50,[3],74 nM
